ChEMBL document CHEMBL5543126, “Combinatorial Ubiquitination REal-time PROteolysis (CURE-PROs): A Modular Platform for Generating Reversible, Self-Assembling Bifunctional Targeted Degraders” (J Med Chem, 2024)
One block for each molecule: values may come before it. Active and inactive are the calls of the source. The rule behind the calls is not given here.

Legend:
[1] = target: T1, von Hippel-Lindau disease tumor suppressor/Bromodomain-containing protein 4 (Homo sapiens, UniProt O60885+P40337); assay: (§1) PROTAC activity at BRD4/VHL in human MCF7 cells assessed as induction of BRD4 degradation by measuring residual activity at 300 nM incubated for 24 hrs in presence of 3 uM VHL based ligand (2S,4R)-1-((S)-2-(2,3-dihydroxybenzamido)-3,3-dimethylbutanoyl)-4-hydroxy-N-(4-(4-methylthiazol-5-yl)benzyl)pyrrolidine-2-carboxamide by Western blot based Combinatorial Ubiquitination Real-time PROteolysis analysis; type: cell-based
T1 sequence (P40337 whole entry, looked up, other chains not shown): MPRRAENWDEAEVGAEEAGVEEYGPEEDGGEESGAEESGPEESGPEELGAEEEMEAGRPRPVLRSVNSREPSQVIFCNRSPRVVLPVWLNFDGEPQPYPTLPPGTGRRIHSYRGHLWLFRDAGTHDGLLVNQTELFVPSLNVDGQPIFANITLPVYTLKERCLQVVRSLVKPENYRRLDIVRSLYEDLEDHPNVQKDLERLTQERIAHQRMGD

[2] = target: T1, von Hippel-Lindau disease tumor suppressor/Bromodomain-containing protein 4; assay: as §1, with “at 100” for “at 300”, “of 1” for “of 3”; type: cell-based
[3] = target: T1, von Hippel-Lindau disease tumor suppressor/Bromodomain-containing protein 4; assay: as §1, with “300 nM” for “3 uM”; type: cell-based
[4] = target: T1, von Hippel-Lindau disease tumor suppressor/Bromodomain-containing protein 4; assay: as §1, with “at 1 uM” for “at 300 nM”, “of 10” for “of 3”; type: cell-based
[5] = target: T2, Protein cereblon/Bromodomain-containing protein 4 (Homo sapiens) (UniProt O60885+Q96SW2); assay: PROTAC activity at BRD4/CRBN in human HeLa cells assessed as induction of BRD4 degradation at 10 uM incubated for 24 hrs in presence of CRBN based ligand N-((2-(2,6-dioxopiperidin-3-yl)-1,3-dioxoisoindolin-4-yl)methyl)-3,4-dihydroxybenzamide by Western blot analysis based Combinatorial Ubiquitination Real-time PROteolysis analysis; type: cell-based
T2 sequence (Q96SW2 whole entry, looked up, other chains not shown): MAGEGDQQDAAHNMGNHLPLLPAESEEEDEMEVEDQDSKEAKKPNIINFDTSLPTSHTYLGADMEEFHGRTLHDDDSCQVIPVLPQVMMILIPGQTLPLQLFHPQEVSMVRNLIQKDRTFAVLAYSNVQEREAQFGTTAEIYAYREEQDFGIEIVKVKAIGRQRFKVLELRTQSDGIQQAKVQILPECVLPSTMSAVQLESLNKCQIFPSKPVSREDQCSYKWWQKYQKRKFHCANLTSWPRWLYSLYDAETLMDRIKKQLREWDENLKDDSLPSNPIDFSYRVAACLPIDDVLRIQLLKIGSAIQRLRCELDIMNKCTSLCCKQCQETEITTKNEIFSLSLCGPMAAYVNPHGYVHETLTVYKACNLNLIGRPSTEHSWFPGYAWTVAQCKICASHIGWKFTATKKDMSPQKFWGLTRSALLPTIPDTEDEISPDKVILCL

[6] = target: T1, von Hippel-Lindau disease tumor suppressor/Bromodomain-containing protein 4; assay: as §1, with “3 uM” for “300 nM”; type: cell-based
[7] = target: T1, von Hippel-Lindau disease tumor suppressor/Bromodomain-containing protein 4; assay: as §1, with “VHL/BRD4” for “BRD4/VHL”, “HEK293” for “human MCF7”, “Tmax” for “residual activity”, “10 uM measured every 15 mins” for “300 nM incubated”, “of” for “of 3 uM”, “HiBiT” for “Western blot”; type: cell-based
[8] = target: T1, von Hippel-Lindau disease tumor suppressor/Bromodomain-containing protein 4; assay: as §1, with “30” for “300”, “300 nM” for “3 uM”; type: cell-based
[9] = target: T1, von Hippel-Lindau disease tumor suppressor/Bromodomain-containing protein 4; assay: (§2) PROTAC activity at BRD4/VHL in human MCF7 cells assessed as induction of BRD4 degradation by measuring residual activity at 1 uM incubated for 24 hrs in presence of 100 nM BRD4 based ligand ((4S)-6-(4-chlorophenyl)-4-(2-(ethylamino)-2-oxoethyl)-1-methyl4Hbenzo[f][1,2,4]triazolo [4,3-a][1,4]diazepin-8-yl)boronic acid by Western blot based Combinatorial Ubiquitination Real-time PROteolysis analysis; type: cell-based
[10] = target: T1, von Hippel-Lindau disease tumor suppressor/Bromodomain-containing protein 4; assay: as §1, with “VHL/BRD4” for “BRD4/VHL”, “degradation” for “degradation by measuring residual activity”, “10 uM” for “300 nM”, “of” for “of 3 uM”, “VHL ligand” for “VHL”, “based” for “based ligand”; type: cell-based
MV4-11 = assay: Antitumor activity against human MV4-11 cells xenografted in nude mouse assessed as reduction in BRD4 level in tumor at 10 mg/kg, ip administered for 4 hrs and measured at 9 to 12 hrs in presence of VHL based ligand (2S,4R)-1-((S)-2-(2,3-dihydroxybenzamido)-3,3-dimethylbutanoyl)-4-hydroxy-N-(4-(4-methylthiazol-5-yl)benzyl)pyrrolidine-2-carboxamide; type: functional, organism-based; conditions: time 9-12 hrs
[11] = target: T1, von Hippel-Lindau disease tumor suppressor/Bromodomain-containing protein 4; assay: as §1, with “VHL/BRD4” for “BRD4/VHL”, “HEK293” for “human MCF7”, “degradation rate” for “residual activity”, “0.3 uM measured every 15 mins” for “300 nM incubated”, “of” for “of 3 uM”, “HiBiT” for “Western blot”; type: cell-based
[12] = target: T2, Protein cereblon/Bromodomain-containing protein 4 (Homo sapiens); assay: PROTAC activity at BRD4/CRBN in human HeLa cells assessed as induction of BRD4 degradation at 10 uM incubated for 24 hrs in presence of CRBN based ligand (1S,4R,5R,6S)-N-((2-(2,6-dioxopiperidin-3-yl)-1,3-dioxoisoindolin-4-yl)methyl)-5,6-dihydroxybicyclo[2.2.1]heptane-2-carboxamide by Western blot analysis based Combinatorial Ubiquitination Real-time PROteolysis analysis; type: cell-based
[13] = target: T1, von Hippel-Lindau disease tumor suppressor/Bromodomain-containing protein 4; assay: as §2, with “1 uM” for “100 nM”; type: cell-based
[14] = target: T1, von Hippel-Lindau disease tumor suppressor/Bromodomain-containing protein 4; assay: as §2, with “100 nM” for “1 uM”, “1 uM” for “100 nM”; type: cell-based
[15] = target: T1, von Hippel-Lindau disease tumor suppressor/Bromodomain-containing protein 4; assay: as §2, with “300 nM” for “1 uM”, “300” for “100”; type: cell-based
[16] = target: T1, von Hippel-Lindau disease tumor suppressor/Bromodomain-containing protein 4; assay: as §2, with “at 10” for “at 1”, “of 1 uM” for “of 100 nM”; type: cell-based
[17] = target: T1, von Hippel-Lindau disease tumor suppressor/Bromodomain-containing protein 4; assay: as §2, with “300 nM” for “1 uM”, “3 uM” for “100 nM”; type: cell-based
[18] = target: T1, von Hippel-Lindau disease tumor suppressor/Bromodomain-containing protein 4; assay: as §2, with “at 3” for “at 1”; type: cell-based
[19] = target: T1, von Hippel-Lindau disease tumor suppressor/Bromodomain-containing protein 4; assay: as §2, with “at 3” for “at 1”, “of” for “of 100 nM”; type: cell-based
[20] = target: T1, von Hippel-Lindau disease tumor suppressor/Bromodomain-containing protein 4; assay: as §2, with “100 nM” for “1 uM”, “3 uM” for “100 nM”; type: cell-based
[21] = target: T1, von Hippel-Lindau disease tumor suppressor/Bromodomain-containing protein 4; assay: as §2, with “30 nM” for “1 uM”, “10 uM” for “100 nM”; type: cell-based
[22] = target: T1, von Hippel-Lindau disease tumor suppressor/Bromodomain-containing protein 4; assay: as §2, with “100 nM” for “1 uM”, “10 uM” for “100 nM”; type: cell-based
[23] = target: T1, von Hippel-Lindau disease tumor suppressor/Bromodomain-containing protein 4; assay: as §2, with “at 10” for “at 1”, “of 10 uM” for “of 100 nM”; type: cell-based

Structure (SMILES): CCNC(=O)C[C@@H]1N=C(c2ccc(Cl)cc2)c2cc(B(O)O)ccc2-n2c(C)nnc21
Activity [1]: 37%
Activity [2]: 101%
Activity [3]: 68%
Activity [4]: 20%
Activity [5]: inactive
Activity [6]: 16%
Tmax [7]: 22.2 h
Activity [8]: 104%
Activity [9]: 56%
Activity [10]: Active
Activity (MV4-11): Active
Activity [11]: 0.144 h⁻¹
Activity [12]: inactive

Activity [13]: 35%
Activity [14]: 101%
Activity [15]: 68%
Activity [16]: 21%
Activity [17]: 37%
Activity [18]: 51%
Activity [19]: 73%
Activity [20]: 74%
Activity [21]: 76%
Activity [22]: 87%
Activity [23]: 6%
Structure (SMILES): Cc1ncsc1-c1ccc(CNC(=O)[C@@H]2C[C@@H](O)CN2C(=O)[C@@H](NC(=O)c2cccc(O)c2O)C(C)(C)C)cc1
